Laboratory results as given in patent US9745282B2, “Indoline compounds as aldosterone synthase inhibitors” (Merck Sharp & Dohme Corp., priority 2012, dated 2017).

Legend:
Assay type in all cases: cell-based
human CYP11B2 [1] = target: T1, human CYP11B2 (Homo sapiens (Human), UniProt P19099); assay: V79-Human-CYP11B2 cell assay; settings: V79 cells expressing human CYP11B2; 125 nM 11-deoxycorticosterone; aldosterone by HTRF
Protocol: (§1) V79 cell lines stably expressing the either the human CYP11B2 or the human CYP11B1 enzyme were generated using a standard transfection protocol. V79 cells were transfected with plasmids pTriEx3-Hygro-hCyp11B2 or pTriEx3-Hygro-hCyp11B1 using Lipofectamine2000 reagent. V79 cells that stably express the human CYP11B2 or human CYP11B1 enzyme were selected for and maintained in DMEM supplemented with 10% FBS and 400 μg/mL hygromycin for 2 weeks. Single cell clones were generated by infinite dilution in DMEM supplemented with 10% FBS and 400 μg/mL hygromycin until single colonies were obtained. […] For testing of inhibitors, cells were harvested at 80% confluency with 0.05% Trypsan-EDTA, washed once in PBS, and reconstituted in DMEM+0.1% BSA media at a cell concentration of 600,000 cells/mL for the CYP11B2 assay and 280,000 cells/mL for the CYP11B1 assay. 25 μL of cells were added to a 384 well tissue culture treated plate and mixed with 0.3 μL of inhibitor or DMSO (1% final DMSO concentration) for 1 hour at 37° C., 5% CO2. After pre-incubation with inhibitor, the reaction was initiated by adding 5 μL of substrate (final concentration of 125 nM 11-deoxycorticosterone for the CYP11B2 assay or 250 nM 11-deoxycortisol for the CYP11B1 assay). The reaction was carried out for 3 hours at 37° C., 5% CO2 and was stopped by harvesting the supernatants. The amount of product in the supernatant (aldosterone for CYP11B2 assay and cortisol for the CYP11B1 assay) was measured using HTRF-based assay kit (Aldosterone HTRF-CisBio#64ALDPEB, Cortisol HTRF-CisBio #63IDC002-CORT). IC50s for the inhibitor were determined by plotting the amount of product formed against the concentration of inhibitor using sigmoidal dose-response curve (variable slope) fit in GraphPad.

human CYP11B1 [2] = target: T2, human CYP11B1 (Homo sapiens (Human), UniProt P15538); assay: V79-Human-CYP11B1 cell assay; settings: V79 cells expressing human CYP11B1; 250 nM 11-deoxycortisol; cortisol by HTRF
T2 sequence (P15538 25-503): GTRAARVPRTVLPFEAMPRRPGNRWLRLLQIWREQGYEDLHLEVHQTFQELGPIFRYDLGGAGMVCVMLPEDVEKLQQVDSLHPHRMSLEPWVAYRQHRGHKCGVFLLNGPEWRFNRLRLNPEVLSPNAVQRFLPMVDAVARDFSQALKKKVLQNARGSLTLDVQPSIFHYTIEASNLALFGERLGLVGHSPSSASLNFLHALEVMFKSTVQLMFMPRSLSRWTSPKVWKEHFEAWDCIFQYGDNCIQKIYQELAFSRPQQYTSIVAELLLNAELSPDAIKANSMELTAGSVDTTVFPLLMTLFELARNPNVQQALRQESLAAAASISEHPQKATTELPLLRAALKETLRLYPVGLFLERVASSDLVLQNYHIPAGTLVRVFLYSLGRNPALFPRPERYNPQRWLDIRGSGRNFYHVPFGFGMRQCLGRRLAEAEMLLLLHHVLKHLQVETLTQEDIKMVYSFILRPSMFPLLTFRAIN
Protocol: V79 cell lines stably expressing the either the human CYP11B2 or the human CYP11B1 enzyme were generated using a standard transfection protocol. V79 cells were transfected with plasmids pTriEx3-Hygro-hCyp11B2 or pTriEx3-Hygro-hCyp11B1 using Lipofectamine2000 reagent. V79 cells that stably express the human CYP11B2 or human CYP11B1 enzyme were selected for and maintained in DMEM supplemented with 10% FBS and 400 μg/mL hygromycin for 2 weeks. Single cell clones were generated by infinite dilution in DMEM supplemented with 10% FBS and 400 μg/mL hygromycin until single colonies were obtained. Clones V79-hCYP11B2-CLE9 and V79-hCYP11B1-CL8C7, were determined to produce the most aldosterone and cortisol, respectively, and were selected for inhibitor screening. For testing of inhibitors, cells were harvested at 80% confluency with 0.05% Trypsan-EDTA, washed once in PBS, and reconstituted in DMEM+0.1% BSA media at a cell concentration of 600,000 cells/mL for the CYP11B2 assay and 280,000 cells/mL for the CYP11B1 assay. 25 μL of cells were added to a 384 well tissue culture treated plate and mixed with 0.3 μL of inhibitor or DMSO (1% final DMSO concentration) for 1 hour at 37° C., 5% CO2. After pre-incubation with inhibitor, the reaction was initiated by adding 5 μL of substrate (final concentration of 125 nM 11-deoxycorticosterone for the CYP11B2 assay or 250 nM 11-deoxycortisol for the CYP11B1 assay). The reaction was carried out for 3 hours at 37° C., 5% CO2 and was stopped by harvesting the supernatants. The amount of product in the supernatant (aldosterone for CYP11B2 assay and cortisol for the CYP11B1 assay) was measured using HTRF-based assay kit (Aldosterone HTRF-CisBio#64ALDPEB, Cortisol HTRF-CisBio #63IDC002-CORT). IC50s for the inhibitor were determined by plotting the amount of product formed against the concentration of inhibitor using sigmoidal dose-response curve (variable slope) fit in GraphPad.

human CYP11B2 [3] = target: T1, human CYP11B2; assay: V79-Human-CYP11B2 cell assay, modified protocol; settings: V79 cells expressing human CYP11B2
Protocol: as §1
(§2) For the CYP11B2 assay, cells were reconstituted in DMEM+0.1% BSA media at a cell concentration of 600,000 cells/mL and for the CYP11B1 assay cells were reconstituted in DMEM+0.1% BSA media at a cell concentration of 280,000 cells/mL. 25 μl of cells were added to a 384 well tissue culture treated plate and mixed with […] or DMSO (1% final DMSO concentration) for 1 hour at 37° C., 5% CO2.

human CYP11B1 [4] = target: T2, human CYP11B1; assay: V79-Human-CYP11B1 cell assay, modified protocol; settings: V79 cells expressing human CYP11B1
Protocol: as §1, §2

T1 sequence (P19099 25-503): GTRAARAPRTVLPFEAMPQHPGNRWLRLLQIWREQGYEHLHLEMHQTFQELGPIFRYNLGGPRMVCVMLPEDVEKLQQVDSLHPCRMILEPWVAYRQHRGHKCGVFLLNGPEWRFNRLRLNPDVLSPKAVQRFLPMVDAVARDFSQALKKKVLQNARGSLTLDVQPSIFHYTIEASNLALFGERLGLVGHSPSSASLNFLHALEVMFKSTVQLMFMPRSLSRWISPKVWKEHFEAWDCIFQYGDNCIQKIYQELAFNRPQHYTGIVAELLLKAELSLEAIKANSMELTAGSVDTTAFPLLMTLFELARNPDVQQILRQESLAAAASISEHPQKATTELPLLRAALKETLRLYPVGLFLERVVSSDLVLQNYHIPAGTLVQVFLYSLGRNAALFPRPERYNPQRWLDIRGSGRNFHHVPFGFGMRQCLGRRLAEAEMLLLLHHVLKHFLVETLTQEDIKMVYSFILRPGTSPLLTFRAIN

IC50 (human CYP11B2 [1]) [nM] | IC50 (human CYP11B1 [2]) [nM] | IC50 (human CYP11B2 [3]) [nM] | IC50 (human CYP11B1 [4]) [nM] | SMILES
110 | > 10000 | – | – | CC(=O)N1CCc2cc(-c3cncc(F)c3)ccc21 [Example 1, 1-(5-(5-fluoropyridin-3-yl)indolin-1-yl)ethanone]
12 | 7900 | – | – | CC(=O)N1CCc2cc(-c3cncc(F)c3)cc(Cl)c21 [Example 2, 1-(7-chloro-5-(5-fluoropyridine-3-yl)indolin-1-yl)ethanone]
4.1 | 130 | – | – | COc1cncc(-c2cc(Cl)c3c(c2)CCN3C(C)=O)c1 [Example 3, 1-(7-chloro-5-(5-methoxypyridin-3-yl)indolin-1-yl)ethanone]
1.2 | 26 | – | – | CC(=O)N1CCc2cc(-c3cncc([C@](C)(O)C(F)(F)F)c3)cc(Cl)c21 [Example 4, (S)-1-(7-chloro-5-(5-(1,1,1,-trifluoro-2-hydroxypropan-2-yl)pydine-3-yl)indolin-1-yl)ethanone]
2.4 | 53 | – | – | CC(=O)N1CCc2cc(-c3cncc([C@@](C)(O)C(F)(F)F)c3)cc(Cl)c21 [Example 5, (R)-1-(7-chloro-5-(5-(1,1,1,-trifluoro-2hydroxypropan-2-yl)pyridine-3-yl)indolin-1-yl)ethanone]
7.5 | 400 | – | – | CC(=O)N1CCc2cc(-c3cncc(C(F)(F)F)c3)cc(Cl)c21 [Example 6, 1-(7-chloro-5-(5-(triuoromethyl)pyridine-3-yl)indolin-1-yl)ethanone]
5 | 610 | – | – | CC(=O)N1CCc2cc(-c3cnccc3C(F)(F)F)cc(Cl)c21 [Example 7, 1-(7-chloro-5-(4-(trifluoromethyl)pyridine-3-yl)indolin-1-yl)ethanone]
2.3 | 400 | – | – | CCc1c(F)cncc1-c1cc(Cl)c2c(c1)CCN2C(C)=O [Example 9, 1-(7-chloro-5-(4-ethyl-5-fluoropyridin-3-yl)indolin-1-yl)ethanone]
35 | 1600 | – | – | CC(=O)N1CCc2cc(-c3cncc(C#N)c3C)cc(Cl)c21 [Example 10, 5-(1-acetyl-7-chloroindolin-5-yl) 4-methylnicotinotrile]
0.7 | 60 | – | – | CC(=O)N1CCc2cc(-c3cncc4ccccc34)cc(Cl)c21 [Example 11, 1-(7-chloro-5-(isoquinolin-4-yl)indolin-1-yl)ethanone]
4.9 | 900 | – | – | CC(=O)N1CCc2cc(-c3cccnc3)cc(F)c21 [Example 12, 1-(7-fluoro-5-(pyridine-3-yl)indolin-1-yl) ethanone]
2.1 | 23 | – | – | CC(=O)N1CCc2cc(-c3cncc([C@](C)(O)C(F)(F)F)c3)cc(F)c21 [Example 13, (S)-1-(7-fluoro-5-(5-(1,1,1-trifluoro-2-hydroxypropan-2-yl)pyridin-3-yl)indolin-1-yl)ethanone]
0.8 | 13 | – | – | CC(=O)N1CCc2cc(-c3cncc([C@@](C)(O)C(F)(F)F)c3)cc(F)c21 [Example 14, (R)-1-(7-fluoro-5-(5-(1,1,1-trifluoro-2-hydroxypropan-2-yl)pyridin-3-yl)indolin-1-l)ethanone]
97 | > 10000 | – | – | CC(=O)N1CCc2cc(-c3cncc(C#N)c3)cc(F)c21 [Example 16, 5-(1-acetyl-7-fluoroindolin-5-yl)nicotinonitrile]
12 | 540 | – | – | CC(=O)N1CCc2cc(-c3cncc(C#N)c3C)cc(F)c21 [Example 17, 5-(1-acetyl-7-fluoroindolin-5-yl)-4-methylnicotino nitrile]
15 | 1100 | – | – | CC(=O)N1CCc2cc(-c3cncc(F)c3)cc(F)c21 [Example 18, 1-(7-fluoro-5-(5-fluoropyridine-3-yl)indolin-1-yl)-ethanone]
1 | 100 | – | – | CC(=O)N1CCc2cc(-c3cncc(F)c3C)cc(F)c21 [Example 19, 1-(7-fluoro-5-(5-fluoro-4-methylpyridine-3-yl)indolin-1-yl)-ethanone]
1.6 | 500 | – | – | CCc1c(F)cncc1-c1cc(F)c2c(c1)CCN2C(C)=O [Example 20, 1-(5-(4-ethyl-5-fluoropyridine-3-yl)-7-fluoroindolin-1-yl)ethanone]
– | – | 228 | 4740 | CCC(=O)N1CCc2cc(-c3cccnc3)ccc21 [Example 21, 1-propanoyl-5-pyridin-3-yl-2,3-dihydro-1H-indole]
– | – | 1430 | > 5000 | COc1ccc(C(=O)N2CCc3cc(-c4cccnc4)ccc32)cc1 [Example 25, 1-[(4-methoxy-phenyl)carbonyl]-5-pyridin-3-yl-2,3-dihydro-1H-indole]
– | – | 3070 | > 5000 | O=C(Cc1ccccc1)N1CCc2cc(-c3cccnc3)ccc21 [Example 26, 1-(Phenylacetyl)-5-pyridin-3-yl-2,3-dihydro-1H-indole]
– | – | 2.8 | 516 | CCC(=O)N1CCc2cc(-c3cncc4ccccc34)ccc21 [Example 29, 4-(1-propanoyl-2,3-dihydro-1H-indol-5-yl)isoquinoline]
– | – | 152 | 6090 | O=C(C1CC1)N1CCc2cc(-c3cncc4ccccc34)ccc21 [Example 31, 4-[1-(cyclopropyl-carbonyl)-2,3-dihydro-1H-indol-5-yl]isoquinoline]
7.4 | 570 | – | – | CC(=O)N1CCc2cc(-c3cccnc3)cc(Cl)c21 [Example 43, 1-(7-chloro-5-(pyridin-3-yl)indolin-1-yl)ethanone]
640 | 470 | – | – | CC(=O)N1CCc2cc(-c3cccnc3)c(Cl)cc21 [Example 44, 1-(6-chloro-5-(pyridin-3-yl)indoline-1-yl)ethanone]
810 | 760 | – | – | CC(=O)N1CCc2cc(-c3cncc(F)c3)c(Cl)cc21 [Example 45, 1-(6-chloro-5-(5-fluoropyridine-3-yl)indolin-1-yl)ethanone]
620 | 780 | – | – | CCc1c(F)cncc1-c1cc2c(cc1Cl)N(C(C)=O)CC2 [Example 46, 1-(6-chloro-5-(4-ethyl-5-fluoropyridine-3-yl)indolin-1-yl)ethanone]
180 | 380 | – | – | CC(=O)N1CCc2cc(-c3cccnc3)c(F)cc21 [Example 47, 1-(6-fluoro-5-(pyridin-3-yl)indon-1-yl)ethanone]
– | > 10000 | – | – | CC(=O)N1CCc2cc(-c3cncc(F)c3)c(F)cc21 [Example 48, 1-(6-fluoro-5-(5-fluoropyridin-3-yl)indolin-1-yl)ethanone]
170 | 4000 | – | – | CCc1c(F)cncc1-c1cc2c(cc1F)N(C(C)=O)CC2 [Example 49, 1-(5-(4-ethyl-5-fluoropyridin-3-yl)-6-fluoroindolin-1-yl)ethanone]
